Laboratory results taken from publication PMC7217150, “Synthesis, Modification, and Biological Evaluation of a Library of Novel Water‐Soluble Thiopyridone‐Based Organometallic Complexes and Their Unexpected (Biological) Behavior” (Chemistry (Weinheim an Der Bergstrasse, Germany), 2020).

Assays:
Assay type in all cases: cell-based, human
[1] = system: CH1/PA‐1; assay: MTT cytotoxicity assay, monolayer culture; settings: CH1/PA‐1, MTT assay, exposure time 96 h, means ± SDs
Text: (§1) A549 (non‐small cell lung carcinoma), SW480 and HCT‐116 (both colon carcinoma) were kindly provided by Brigitte Marian, Institute of Cancer Research, Department of Medicine I, Medical University of Vienna, Austria. The cell line CH1/PA‐1 (ovarian teratocarcinoma) was kindly provided by Lloyd R. Kelland (CRC Centre for Cancer Therapeutics, Institute of Cancer Research, Sutton, UK). All cell culture media (including supplements) and reagents were obtained from Sigma–Aldrich, and all plasticware from StarLab, unless indicated otherwise.

[2] = system: SW480; assay: MTT cytotoxicity assay, monolayer culture; settings: SW480, MTT assay, exposure time 96 h, means ± SDs
Text: as §1

[3] = system: A549; assay: MTT cytotoxicity assay, monolayer culture; settings: exposure time 96 h, means ± SDs
Text: as §1

[4] = system: CH1/PA‐1; assay: Cell cycle distribution, flow cytometry with propidium iodide; settings: for Cell cycle distribution G1, % / Cell cycle distribution G2/M, % / Cell cycle distribution S, %: 24 h, mean ± SD; for Relative change in cell cycle distribution G1, % / Relative change in cell cycle distribution G2/M, % / Relative change in cell cycle distribution S, %: difference to untreated control
Description: (§2) The influence of two ligands, as well as seven complexes on cell cycle distribution was tested in two of the cancer cell lines (SW480, CH1/PA‐1) by means of flow cytometry. The cell cycle distribution (G1, S, G2/M phase in %; Table S37) was investigated upon DNA staining with propidium iodide.
(§3) CH1/PA‐1 and SW480 cells were harvested by trypsinization, 8×10^4 and 1.2×10^5 cells per well were seeded into 12‐well plates, respectively. The cells were allowed to attach and resume proliferation for 24 h after the seeding. […] After continuous exposure for 24 h at 37 °C and under 5 % CO2, the cells were harvested by trypsinization and centrifuged at 300 g for 3 min. The cells were washed with PBS (1 mL) and resuspended in propidium iodine (PI) containing HSF buffer (600 μL; 0.1 % Triton X‐100, 0.1 % sodium citrate, 50 μg mL^−1 PI in PBS). After incubation overnight at 4 °C in the dark, 5×10^3 cells were measured by flow cytometry with a Millipore Guava easyCyte 8HT instrument (Luminex, USA). Data were evaluated by means of FlowJo software (Tree Star) using Watson Pragmatic algorithms.60 The fitting of the curve was chosen to keep the root mean square error between 1.0 and 2.0, alongside with good fitting visual model.

[5] = system: SW480; assay: as above; settings: for Cell cycle distribution G1, % / Cell cycle distribution G2/M, % / Cell cycle distribution S, %: 24 h, mean ± SD; for Relative change in cell cycle distribution G1, % / Relative change in cell cycle distribution G2/M, % / Relative change in cell cycle distribution S, %: difference to untreated control
Description: as §2, §3

Cc1c(O)c(=S)ccn1C [Compound 2 a, 3‐hydroxy‐1,2‐dimethylpyridine‐4(1H)‐thione]
IC50 ([1]; Homo sapiens): 15 ± 1 µM | IC50 ([2]; Homo sapiens): 3.2 ± 0.3 µM | IC50 ([3]; Homo sapiens): 66 ± 6 µM | Cell cycle distribution G1, % ([4]; CH1/PA-1, 5 µM): 33 ± 4% | Cell cycle distribution G2/M, % ([4]; CH1/PA-1, 5 µM): 27 ± 5% | Cell cycle distribution S, % ([4]; CH1/PA-1, 5 µM): 40 ± 3% | Relative change in cell cycle distribution G1, % ([4]; CH1/PA-1, 5 µM): -7% | Relative change in cell cycle distribution G2/M, % ([4]; CH1/PA-1, 5 µM): 3% | Relative change in cell cycle distribution S, % ([4]; CH1/PA-1, 5 µM): 4% | Cell cycle distribution G1, % ([4]; CH1/PA-1, 10 µM): 33 ± 4% | Cell cycle distribution G2/M, % ([4]; CH1/PA-1, 10 µM): 26 ± 6% | Cell cycle distribution S, % ([4]; CH1/PA-1, 10 µM): 41 ± 8% | Relative change in cell cycle distribution G1, % ([4]; CH1/PA-1, 10 µM): -7% | Relative change in cell cycle distribution G2/M, % ([4]; CH1/PA-1, 10 µM): 2% | Relative change in cell cycle distribution S, % ([4]; CH1/PA-1, 10 µM): 5% | Cell cycle distribution G1, % ([4]; CH1/PA-1, 20 µM): 35 ± 3% | Cell cycle distribution G2/M, % ([4]; CH1/PA-1, 20 µM): 28 ± 4% | Cell cycle distribution S, % ([4]; CH1/PA-1, 20 µM): 37 ± 9% | Relative change in cell cycle distribution G1, % ([4]; CH1/PA-1, 20 µM): -5% | Relative change in cell cycle distribution G2/M, % ([4]; CH1/PA-1, 20 µM): 4% | Relative change in cell cycle distribution S, % ([4]; CH1/PA-1, 20 µM): 1% | Cell cycle distribution G1, % ([5]; SW480, 5 µM): 45 ± 1% | Cell cycle distribution G2/M, % ([5]; SW480, 5 µM): 23 ± 0% | Cell cycle distribution S, % ([5]; SW480, 5 µM): 32 ± 2% | Relative change in cell cycle distribution G1, % ([5]; SW480, 5 µM): -3% | Relative change in cell cycle distribution G2/M, % ([5]; SW480, 5 µM): 4% | Relative change in cell cycle distribution S, % ([5]; SW480, 5 µM): -1% | Cell cycle distribution G1, % ([5]; SW480, 10 µM): 41 ± 1% | Cell cycle distribution G2/M, % ([5]; SW480, 10 µM): 24 ± 1% | Cell cycle distribution S, % ([5]; SW480, 10 µM): 35 ± 2% | Relative change in cell cycle distribution G1, % ([5]; SW480, 10 µM): -7% | Relative change in cell cycle distribution G2/M, % ([5]; SW480, 10 µM): 5% | Relative change in cell cycle distribution S, % ([5]; SW480, 10 µM): 2% | Cell cycle distribution G1, % ([5]; SW480, 20 µM): 44 ± 3% | Cell cycle distribution G2/M, % ([5]; SW480, 20 µM): 22 ± 2% | Cell cycle distribution S, % ([5]; SW480, 20 µM): 33 ± 2% | Relative change in cell cycle distribution G1, % ([5]; SW480, 20 µM): -4% | Relative change in cell cycle distribution G2/M, % ([5]; SW480, 20 µM): 3% | Relative change in cell cycle distribution S, % ([5]; SW480, 20 µM): 0%

CC1=C2[O][Rh+]([Cl])[S]=C2C=CN1c1cccc2ccccc12.Cc1c(C)c(C)[c-](C)c1C [Compound 5 d, Chlorido[1‐(naphthalene‐1‐yl)‐2‐methyl‐3‐oxo‐κO‐pyridine‐4(1H)‐thionato‐κS](η^5‐1,2,3,4,5‐pentamethylcyclopentadienyl)rhodium(III)]
IC50 [1]: 0.48 ± 0.06 µM | IC50 [2]: 1 ± 0.1 µM | IC50 [3]: 1.3 ± 0.2 µM | Cell cycle distribution G1, % ([4]; CH1/PA-1, 1.25 µM): 40 ± 10% | Cell cycle distribution G2/M, % ([4]; CH1/PA-1, 1.25 µM): 16 ± 9% | Cell cycle distribution S, % ([4]; CH1/PA-1, 1.25 µM): 44 ± 3% | Relative change in cell cycle distribution G1, % ([4]; CH1/PA-1, 1.25 µM): 0% | Relative change in cell cycle distribution G2/M, % ([4]; CH1/PA-1, 1.25 µM): -8% | Relative change in cell cycle distribution S, % ([4]; CH1/PA-1, 1.25 µM): 8% | Cell cycle distribution G1, % ([4]; CH1/PA-1, 2.5 µM): 38 ± 5% | Cell cycle distribution G2/M, % ([4]; CH1/PA-1, 2.5 µM): 27 ± 8% | Cell cycle distribution S, % ([4]; CH1/PA-1, 2.5 µM): 36 ± 7% | Relative change in cell cycle distribution G1, % ([4]; CH1/PA-1, 2.5 µM): -2% | Relative change in cell cycle distribution G2/M, % ([4]; CH1/PA-1, 2.5 µM): 3% | Relative change in cell cycle distribution S, % ([4]; CH1/PA-1, 2.5 µM): 0% | Cell cycle distribution G1, % ([4]; CH1/PA-1, 5 µM): 39 ± 6% | Cell cycle distribution G2/M, % ([4]; CH1/PA-1, 5 µM): 22 ± 5% | Cell cycle distribution S, % ([4]; CH1/PA-1, 5 µM): 40 ± 2% | Relative change in cell cycle distribution G1, % ([4]; CH1/PA-1, 5 µM): -1% | Relative change in cell cycle distribution G2/M, % ([4]; CH1/PA-1, 5 µM): -2% | Relative change in cell cycle distribution S, % ([4]; CH1/PA-1, 5 µM): 4% | Cell cycle distribution G1, % ([5]; SW480, 2.5 µM): 38 ± 12% | Cell cycle distribution G2/M, % ([5]; SW480, 2.5 µM): 22 ± 8% | Cell cycle distribution S, % ([5]; SW480, 2.5 µM): 40 ± 3% | Relative change in cell cycle distribution G1, % ([5]; SW480, 2.5 µM): -10% | Relative change in cell cycle distribution G2/M, % ([5]; SW480, 2.5 µM): 3% | Relative change in cell cycle distribution S, % ([5]; SW480, 2.5 µM): 7% | Cell cycle distribution G1, % ([5]; SW480, 5 µM): 43 ± 10% | Cell cycle distribution G2/M, % ([5]; SW480, 5 µM): 20 ± 3% | Cell cycle distribution S, % ([5]; SW480, 5 µM): 37 ± 8% | Relative change in cell cycle distribution G1, % ([5]; SW480, 5 µM): -5% | Relative change in cell cycle distribution G2/M, % ([5]; SW480, 5 µM): 1% | Relative change in cell cycle distribution S, % ([5]; SW480, 5 µM): 4% | Cell cycle distribution G1, % ([5]; SW480, 10 µM): 48 ± 10% | Cell cycle distribution G2/M, % ([5]; SW480, 10 µM): 18 ± 1% | Cell cycle distribution S, % ([5]; SW480, 10 µM): 34 ± 9% | Relative change in cell cycle distribution G1, % ([5]; SW480, 10 µM): 0% | Relative change in cell cycle distribution G2/M, % ([5]; SW480, 10 µM): -1% | Relative change in cell cycle distribution S, % ([5]; SW480, 10 µM): 1%

Chlorido[1‐phenyl‐2‐methyl‐3‐oxo‐κO‐pyridine‐4(1H)‐thionato‐κS](η^5‐1,2,3,4,5‐pentamethylcyclopentadienyl)rhodium(III) [Compound 5 b]
IC50 [1]: 0.66 ± 0.08 µM | IC50 [2]: 0.67 ± 0.04 µM | IC50 [3]: 2 ± 0.8 µM | Cell cycle distribution G1, % ([4]; CH1/PA-1, 2.5 µM): 22 ± 2% | Cell cycle distribution S, % ([4]; CH1/PA-1, 2.5 µM): 43 ± 9% | Relative change in cell cycle distribution G1, % ([4]; CH1/PA-1, 2.5 µM): -18% | Relative change in cell cycle distribution G2/M, % ([4]; CH1/PA-1, 2.5 µM): 11% | Relative change in cell cycle distribution S, % ([4]; CH1/PA-1, 2.5 µM): 7% | Cell cycle distribution G1, % ([4]; CH1/PA-1, 5 µM): 22 ± 6% | Cell cycle distribution G2/M, % ([4]; CH1/PA-1, 5 µM): 41 ± 4% | Cell cycle distribution S, % ([4]; CH1/PA-1, 5 µM): 37 ± 5% | Relative change in cell cycle distribution G1, % ([4]; CH1/PA-1, 5 µM): -18% | Relative change in cell cycle distribution G2/M, % ([4]; CH1/PA-1, 5 µM): 17% | Relative change in cell cycle distribution S, % ([4]; CH1/PA-1, 5 µM): 1% | Cell cycle distribution G1, % ([4]; CH1/PA-1, 10 µM): 19 ± 7% | Cell cycle distribution G2/M, % ([4]; CH1/PA-1, 10 µM): 39 ± 5% | Cell cycle distribution S, % ([4]; CH1/PA-1, 10 µM): 42 ± 1% | Relative change in cell cycle distribution G1, % ([4]; CH1/PA-1, 10 µM): -21% | Relative change in cell cycle distribution G2/M, % ([4]; CH1/PA-1, 10 µM): 15% | Relative change in cell cycle distribution S, % ([4]; CH1/PA-1, 10 µM): 6% | decrease in G1 phase ([4]; CH1/PA‐1 cells, 10 μM): more than 20% | Cell cycle distribution G1, % ([5]; SW480, 2.5 µM): 37 ± 17% | Cell cycle distribution G2/M, % ([5]; SW480, 2.5 µM): 23 ± 7% | Cell cycle distribution S, % ([5]; SW480, 2.5 µM): 40 ± 11% | Relative change in cell cycle distribution G1, % ([5]; SW480, 2.5 µM): -11% | Relative change in cell cycle distribution G2/M, % ([5]; SW480, 2.5 µM): 4% | Relative change in cell cycle distribution S, % ([5]; SW480, 2.5 µM): 7% | Cell cycle distribution G1, % ([5]; SW480, 5 µM): 26 ± 13% | Cell cycle distribution G2/M, % ([5]; SW480, 5 µM): 27 ± 9% | Cell cycle distribution S, % ([5]; SW480, 5 µM): 48 ± 7% | Relative change in cell cycle distribution G1, % ([5]; SW480, 5 µM): -22% | Relative change in cell cycle distribution G2/M, % ([5]; SW480, 5 µM): 8% | Relative change in cell cycle distribution S, % ([5]; SW480, 5 µM): 15% | Cell cycle distribution G1, % ([5]; SW480, 10 µM): 34 ± 10% | Cell cycle distribution G2/M, % ([5]; SW480, 10 µM): 17 ± 6% | Cell cycle distribution S, % ([5]; SW480, 10 µM): 49 ± 8% | Relative change in cell cycle distribution G1, % ([5]; SW480, 10 µM): -14% | Relative change in cell cycle distribution G2/M, % ([5]; SW480, 10 µM): -2% | Relative change in cell cycle distribution S, % ([5]; SW480, 10 µM): 16% | G1 phase decrease ([5]; SW480 cells, 5 μM): more than 20%
